Read-outs that look alike come from different tables or passages of the source.
Assays:
[1] = tested on: EGFR‐mutant NSCLC; conditions: cited from earlier work
[2] = Pharmacokinetic analyses: apatinib and gefitinib plasma concentrations (LC–MS/MS, non‐compartmental); conditions: for half-life: T1/2, gefitinib 250 mg + apatinib 500 or 250 mg
Source text: In the two cohorts, PK assessment consisted of a single‐dose‐administration on Cycle 1, Day 1's (C1, D1) test and a continuous‐dose‐administration on Cycle 1, Day 15′s (C1, D15) test. For detailed blood collection administration, see the supplementary materials. […] PK parameters, including maximum plasma concentration (C max), area under the plasma concentration‐time curve (AUC), time to reach maximum plasma concentration (T max), elimination half‐life (T 1/2), steady state concentration (Css), area under the plasma concentration‐time curve for steady state (AUCss), steady state volume of distribution (Vdss), and steady state clearance rate (CLss) were calculated using non‐compartmental methods with Winnonlin 7 software. The AUC was estimated by using the linear trapezoidal rule method and T 1/2 was determined by linear regression of the terminal slope of the logarithmic plasma concentration‐time profile. Descriptive statistics were measured for the PK parameters using mean with its corresponding standard deviation (SD).
In the two cohorts, PK assessment consisted of a single-dose-administration (C1D1) test and a continuous-dose-administration (C1D15) test. Serial peripheral blood samples were collected at pre-dose and 1, 2, 3, 4, 5, 6, 8, 12 and 24 post-dose for the single dose PK test. For the continuous PK test, serial peripheral blood samples were collected at pre-dose and at 0.5, 1, 2, 3, 4, 5, 6, 8, 12, and 24 hours post-dose on […]. Samples were centrifuged, and plasma frozen at −80°C refrigerator until further analysis.
Descriptive statistics (mean and standard deviation) were estimated for PK parameters. Median values and ranges were provided for time to reach maximum plasma concentration.

[3] = Gefitinib 225mg, Japanese patients, ref [3] Nakagawa K et al., Annals of Oncology 2003, cited from earlier work
[4] = cited from earlier work

C#Cc1cccc(Nc2ncnc3cc(OCCOC)c(OCCOC)cc23)c1 [erlotinib]
mPFS ([1]; ARTEMIS (CTONG 1509) study): 11.3 months
PFS ([1]; JO25567 study): 9.7 months
PFS ([1]; RELAY study): 12.4 months

COc1cc2ncnc(Nc3ccc(F)c(Cl)c3)c2cc1OCCCN1CCOCC1 [Gefitinib]
Cmaxmulti ([2]; Table S6, Gefitinib 250mg + apatinib, this study, geometric mean, SD): 469 (134) ng/ml
Tmax ([2]; gefitinib 250 mg + apatinib 500 or 250 mg, Day 15 (n = 11), Median (range)): 4 (3‐6) h
AUC(0-t) ([2]; human, plasma, oral, AUC0-24, Table S6, Gefitinib 250mg + apatinib, this study, geometric mean, SD): 3330 ng·h/mL
AUC ([2]; human, plasma, oral, AUC0-24multi, Table S6, Gefitinib 250mg + apatinib, this study, multiple-dosage regimen, geometric mean, SD): 8130 ng·h/mL
AUC ([2]; human, plasma, oral, AUC0‐24, gefitinib 250 mg + apatinib 500 or 250 mg, Day 1 (n = 11), Table 2: Geometric Mean (%CV)): 3440 ng·h/mL
AUC ([2]; human, plasma, oral, AUC0‐24, gefitinib 250 mg + apatinib 500 or 250 mg, Day 15 (n = 11), Table 2: Geometric Mean (%CV)): 7980 ng·h/mL
AUC ([2]; human, plasma, oral, AUC0‐∞, gefitinib 250 mg + apatinib 500 or 250 mg, Day 1 (n = 11), Geometric Mean (%CV)): 6400 ng·h/mL
AUC ([2]; human, plasma, oral, AUC0‐∞, gefitinib 250 mg + apatinib 500 or 250 mg, Day 15 (n = 11), Geometric Mean (%CV)): 18100 ng·h/mL
AUC ([2]; human, plasma, oral, AUCss, steady state, Gefitinib 250mg + apatinib, Mean±SD): 7220 ± 1730 ng·h/mL
clearance ([2]; human, plasma, oral, CL, gefitinib 250 mg + apatinib 500 or 250 mg, Day 1 (n = 11), Mean (SD)): 683 mL/min
clearance ([2]; human, plasma, oral, CL, gefitinib 250 mg + apatinib 500 or 250 mg, Day 15 (n = 11), Mean (SD)): 533 mL/min
clearance ([2]; human, plasma, oral, CLss, steady state, Gefitinib 250mg + apatinib, Mean±SD): 617 mL/min
Cmax ([2]; human, plasma, oral, Table S6, Gefitinib 250mg + apatinib, this study, geometric mean, SD): 488 ± 28 ng/mL
Cmax ([2]; human, plasma, oral, gefitinib 250 mg + apatinib 500 or 250 mg, Day 1 (n = 11), Table 2: Geometric Mean (%CV)): 272 ng/mL
Cmax ([2]; human, plasma, oral, gefitinib 250 mg + apatinib 500 or 250 mg, Day 15 (n = 11), Table 2: Geometric Mean (%CV)): 465 ng/mL
half-life ([2]; human, plasma, oral, Day 1 (n = 11), Mean (SD)): 21 h
half-life ([2]; human, plasma, oral, Day 15 (n = 11), Mean (SD)): 30 h
Tmax ([2]; human, plasma, oral, Tmax, Table S6, Gefitinib 250mg + apatinib, this study, geometric mean, SD): 3.9 h
Tmax ([2]; human, plasma, oral, Tmax, gefitinib 250 mg + apatinib 500 or 250 mg, Day 1 (n = 11), Median (range)): 3 h
Tmax ([2]; human, plasma, oral, Tmax, gefitinib 250 mg + apatinib 500 or 250 mg, Day 15 (n = 11), Median (range)): 3 h
Vd ([2]; human, plasma, oral, Vd, gefitinib 250 mg + apatinib 500 or 250 mg, Day 1 (n = 11), Mean (SD)): 1100 L
Vd ([2]; human, plasma, oral, Vd, gefitinib 250 mg + apatinib 500 or 250 mg, Day 15 (n = 11), Mean (SD)): 1330 L
Vd ([2]; human, plasma, oral, Vdss, steady state, Gefitinib 250mg + apatinib, Mean±SD): 880 ± 234 L
AUC0-24multi ([3]; multiple-dosage regimen): 5191 (61) ng·h/ml
AUC0-24 [3]: 1986 (58) ng·h/ml
Cmax [3]: 150 (92) ng/ml
Cmaxmulti [3]: 341 (61) ng/ml
Tmax [3]: 5 (3-7) h
MTD [4]: 750 mg/day

C=CC(=O)Nc1cc(Nc2nccc(-c3cn(C)c4ccccc34)n2)c(OC)cc1N(C)CCN(C)C [Osimertinib]
mPFS ([1]; AURA3 study): 10.1 months
